Four compounds from US20220411362A1, “DITERPENOID COMPOUNDS THAT ACT ON PROTEIN KINASE C (PKC)” (K-Gen, Inc., priority 2019, published 2022) can be followed below.

For test [1], the system named is Namalwa (Lymphoma) cell line. As to the kind of experiment: Proliferation of Namalwa. It is filed as cell-based. The settings on record: for ratio of (IC50 of K01)/(IC50 of compound), Namalwa: value in parenthesis; for IC50: read-out: IC50 in μM Namalwa (Lymphoma). In a few lines:
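Cells seeded at 800-1000 (KP-4), 5000 (HL-60) or 5000-10000 (Namalwa, Mino) per well, then treated with 3-fold serial dilutions (final DMSO ≤0.25%) for 96 h. Viability read by CellTiter Glo luminescence, % inhibition vs DMSO; IC50 normalised across batches as IC50 of comparator K01 / IC50 of compound.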

In test [2] the test system is A549 non-small cell lung cancer cell line. Kind of test: Proliferation of A549 (CellTiter Glo). It is filed as cell-based. The settings on record: Homo sapiens, A549, 96 h, read-out: IC50 μM (A549 Cell Line). The method, boiled down: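 A549 cells (K-Ras mutant) seeded 1,000/well, 24 h at 37° C, then treated with 3-fold serial dilutions (final DMSO ≤0.25%) for 96 h. Viability by CellTiter Glo luminescence; % inhibition vs DMSO-only Max, curve-fit to give IC50, relative IC50 and % top inhibition.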

The target of another test is T1, C1b domain of human PKCε (Homo sapiens, UniProt Q02156).
T1 construct: Genes encoding C1b domains of human PKCα, δ, ε, θ, and PKD1 (PKCμ) were synthesized; made in house; host or cells: E. coli BL21(DE3)
T1 sequence (Q02156 242-292 limits assumed): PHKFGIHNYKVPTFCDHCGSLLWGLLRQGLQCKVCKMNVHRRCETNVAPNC
Kind of test: Competitive 3H-PDBu binding to C1b domain of PKCε. The method, boiled down: (§1)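 Affinity was measured by competition with the radiotracer 3H-PDBu for recombinant human GST-C1b fusion proteins expressed in E. coli BL21(DE3). Incubation ran 10 minutes at 37° C with shaking, then 20 minutes on ice, and filter-trapped 3H-PDBu was counted by scintillation. IC50 values were converted to Ki by Cheng-Prusoff using the experimentally determined Kd for each protein preparation.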

Another test concerns the target T2, C1b domain of human PKCδ (Homo sapiens, UniProt Q05655).
T2 construct: Genes encoding C1b domains of human PKCα, δ, ε, θ, and PKD1 (PKCμ) were synthesized; made in house; host or cells: E. coli BL21(DE3)
Kind of test: Competitive 3H-PDBu binding to C1b domain of PKCδ. The settings on record: Ki PKCδ, 3H-PDBu competition. In a few lines: as §1

For test [3], the system named is phosphorylation of CaMKii at T286 in Panc1 cells. As to the kind of experiment: CaMKii phosphorylation in Panc1 cell line (Western blot). It is filed as cell-based. To be noted: 0.02 μM and 0.1 M, 48 hours (FIG. 5). Here is the method: Panc1 (a pancreatic cancer cell line) cells (˜5-8 millions) were seeded in 10 cm dishes (or ˜2 millions in 6 cm dishes) and treated next day with prostratin (K-101, 0.2 μM and 1 μM) or 0.02 μM and […] of K101-C1347, -C134801, and -C134802 for 48 hours. Cells were then collected/lysed for Western blot analysis. Protein quantification, SDS-PAGE, and Western blot procedures were performed as described in Example 65, except that a different lysis buffer (1 ml of 10×TNE [20 mL 1M Tris pH7.5; 30 mL 5M NaCl; 2 mL 0.5M EDTA; 48 mL d2H2O], 1 ml of 10% NP40, 7.7 mL of dH2O, 100 μL of 10× Protease inhibitors, 100 μL of 10× Phosphatase inhibitors, and 10 μl DTT) was used. To assess the effect of diterpenoid compounds on CaMKii phosphorylation, a phospho-specific antibody P-CaMKii (T286) (Abcam, cat #32678) was used for detection. Phosphorylation of CaMKii at T286 is a marker for activation of CaMKii kinase in the Wnt/Ca^2+ signaling pathway when […] and thus a downstream marker for inhibition of K-Ras stemness (Wang et al., Cell. 2015, 163(5):1237-51).

Each structure is given as a SMILES string.

T2 sequence (Q05655 230-280 limits assumed): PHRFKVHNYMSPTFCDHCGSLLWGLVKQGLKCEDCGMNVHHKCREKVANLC

On to `CC1=C[C@H]2[C@@]3(O)[C@H](C)C[C@]4(OC(=O)[C@@H](N)CC5CCCCC5)[C@H]([C@@H]3C=C(CO)C[C@]2(O)C1=O)C4(C)C` [Compound K101-C1327], for which the “ratio of (IC50 of K01)/(IC50 of compound), Namalwa” value (shortened to “ratio”) in test [1] came to 2.03. Also, the half-inhibitory concentration (IC50) in test [1] fell in the range of 0.03 to 0.06 µM; in test [2] it was 0.06 to 0.1 µM. Besides, the Ki at C1b domain of human PKCε was 1 to 30 nM; at C1b domain of human PKCδ, < 5 nM.
For `CC1=C[C@H]2[C@@]3(O)[C@H](C)C[C@]4(OC(=O)[C@H](N)CCCCCCc5ccccc5)[C@H]([C@@H]3C=C(CO)C[C@]2(O)C1=O)C4(C)C` [Compound K101-C134801], the “ratio” value in test [1] came out at 4.93. Further, the 50% inhibitory concentration (IC50) in test [1] and in test [2] was 0.01 to 0.03 µM in each case. The inhibitory constant (Ki) at C1b domain of human PKCε fell in the range of 1 to 30 nM; on C1b domain of human PKCδ it was 5 to 10 nM. Besides, the “phosphorylation of CaMKii at T286” value in test [3] is recorded as “induced phosphorylation of CaMKii at T286”.
In the case of `CC1=C[C@H]2[C@@]3(O)[C@H](C)C[C@]4(OC(=O)[C@@H](N)[C@]56C[C@H]7C[C@H](C[C@H](C7)C5)C6)[C@H]([C@@H]3C=C(CO)C[C@]2(O)C1=O)C4(C)C` [Compound K101-C1347], the “ratio” value in test [1] is 18.2. For the same compound, the 50% inhibitory concentration (IC50) in test [1] and in test [2] was 0.001 to 0.01 µM throughout. The values for the Ki on C1b domain of human PKCε and at C1b domain of human PKCδ were 5 to 10 nM and < 5 nM, respectively. Also, the “phosphorylation of CaMKii at T286” value in test [3] is recorded as “induced phosphorylation of CaMKii at T286”.
For `CC1=C[C@H]2[C@@]3(O)[C@H](C)C[C@]4(OC(=O)[C@@H](N)CCCCCCc5ccccc5)[C@H]([C@@H]3C=C(CO)C[C@]2(O)C1=O)C4(C)C` [Compound K101-C134802], the “ratio” value in test [1] stood at 16.1. Further, the half-maximal inhibitory concentration (IC50) in test [1] and in test [2] was 0.001 to 0.01 µM each time. For the same compound, the Ki at C1b domain of human PKCε is 1 to 30 nM; on C1b domain of human PKCδ, < 5 nM. For the same compound, the “phosphorylation of CaMKii at T286” value in test [3] was “induced phosphorylation of CaMKii at T286”.

In general, IC50 refers to the concentration at which inhibition is half-maximal. What is called Ki is the equilibrium dissociation constant of an inhibitor or competing ligand from its target. Low readings indicate a stronger hold on the target, high ones a looser hold on the target.
